From article PMC11831560, “Development of the Pyrido[2,3-d]pyrimidin-7(8H)-one Scaffold toward Potent and Selective NUAK1 Inhibitors” (ACS Medicinal Chemistry Letters, 2025)

Legend:
Test in all cases: Kinase panel radiometric filter binding (33P-ATP)
Assay type in all cases: biochemical
Set-up in all cases: dose or concentration left out as unconfirmed
[1] = biological target: CSK (Homo sapiens, UniProt P41240)
Procedure: (§1) Table S4: AMPKA kinase activity data (ADP-Glo assay)
(§2) Compound pIC50 (Fold selectivity
(§3) Table S5. Kinase selectivity screening for 9 and 24 at 1 µM against a general kinase panel of 140 targets
(§4) in radiometric filter binding assay using 33P-γ−ATP at the MRC PPU International Centre for Kinase
(§5) Profiling, University of Dundee. pIC50 values were determined for compounds with <20% activity
(§6) Kinase activity s.d. pIC50 activity s.d. pIC50

[2] = biological target: PKBa (Homo sapiens, UniProt P31749)
Procedure: as §1, §2, §3, §4, §5, §6

[3] = biological target: p38b MAPK (Homo sapiens, UniProt Q15759)
Procedure: as §1, §2, §3, §4, §5, §6

[4] = biological target: HIPK1 (Homo sapiens, UniProt Q86Z02)
Procedure: as §1, §2, §3, §4, §5, §6

[5] = biological target: PKCγ (Homo sapiens, UniProt P05129)
Procedure: as §1, §2, §3, §4, §5, §6

[6] = biological target: CAMKKb (Homo sapiens, UniProt Q96RR4)
Procedure: as §1, §2, §3, §4, §5, §6

[7] = biological target: PAK2 (Homo sapiens, UniProt Q13177)
Procedure: as §1, §2, §3, §4, §5, §6

[8] = biological target: PAK5 (Homo sapiens, UniProt Q9P286)
Procedure: as §1, §2, §3, §4, §5, §6

[9] = biological target: JNK2 (Homo sapiens, UniProt P45984)
Procedure: as §1, §2, §3, §4, §5, §6

[10] = biological target: SGK1 (Homo sapiens, UniProt O00141)
Procedure: as §1, §2, §3, §4, §5, §6

[11] = biological target: TTBK1 (Homo sapiens, UniProt Q5TCY1)
Procedure: as §1, §2, §3, §4, §5, §6

[12] = biological target: BTK (Homo sapiens, UniProt Q06187)
Procedure: as §1, §2, §3, §4, §5, §6

[13] = biological target: JNK1 (Homo sapiens, UniProt P45983)
Procedure: as §1, §2, §3, §4, §5, §6

[14] = biological target: ERK5 (Homo sapiens, UniProt Q13164)
Procedure: as §1, §2, §3, §4, §5, §6

[15] = biological target: TIE2 (Homo sapiens, UniProt Q02763)
Procedure: as §1, §2, §3, §4, §5, §6

[16] = biological target: IRAK4 (Homo sapiens, UniProt Q9NWZ3)
Procedure: as §1, §2, §3, §4, §5, §6

[17] = biological target: ULK1 (Homo sapiens, UniProt O75385)
Procedure: as §1, §2, §3, §4, §5, §6

[18] = biological target: OSR1 (Homo sapiens, UniProt O95747)
Procedure: as §1, §2, §3, §4, §5, §6

[19] = biological target: TAO1 (Homo sapiens, UniProt Q7L7X3)
Procedure: as §1, §2, §3, §4, §5, §6

[20] = biological target: GCK (Homo sapiens, UniProt Q12851)
Procedure: as §1, §2, §3, §4, §5, §6

[21] = biological target: EPH-B3 (Homo sapiens, UniProt P54753)
Procedure: as §1, §2, §3, §4, §5, §6

[22] = biological target: PIM2 (Homo sapiens, UniProt Q9P1W9)
Procedure: as §1, §2, §3, §4, §5, §6

[23] = biological target: SmMLCK (Homo sapiens, UniProt Q15746)
Procedure: as §1, §2, §3, §4, §5, §6

[24] = biological target: TSSK1 (Homo sapiens, UniProt Q9BXA7)
Procedure: as §1, §2, §3, §4, §5, §6

[25] = biological target: SRPK1 (Homo sapiens, UniProt Q96SB4)
Procedure: as §1, §2, §3, §4, §5, §6

[26] = biological target: AMPK (hum) (Homo sapiens, UniProt Q13131)
Procedure: as §1, §2, §3, §4, §5, §6

[27] = biological target: WNK1 (Homo sapiens, UniProt Q9H4A3)
Procedure: as §1, §2, §3, §4, §5, §6

[28] = biological target: PAK4 (Homo sapiens, UniProt O96013)
Procedure: as §1, §2, §3, §4, §5, §6

[29] = biological target: RSK1 (Homo sapiens, UniProt Q15418)
Procedure: as §1, §2, §3, §4, §5, §6

[30] = biological target: S6K1 (Homo sapiens, UniProt P23443)
Procedure: as §1, §2, §3, §4, §5, §6

[31] = biological target: DYRK2 (Homo sapiens, UniProt Q92630)
Procedure: as §1, §2, §3, §4, §5, §6

[32] = biological target: PRK2 (Homo sapiens, UniProt Q16513)
Procedure: as §1, §2, §3, §4, §5, §6

[33] = biological target: PRAK (Homo sapiens, UniProt Q8IW41)
Procedure: as §1, §2, §3, §4, §5, §6

[34] = biological target: GSK3b (Homo sapiens, UniProt P49841)
Procedure: as §1, §2, §3, §4, §5, §6

[35] = biological target: EPH-A4 (Homo sapiens, UniProt P54764)
Procedure: as §1, §2, §3, §4, §5, §6

Sequence of TIE2 (Q02763 23-1124): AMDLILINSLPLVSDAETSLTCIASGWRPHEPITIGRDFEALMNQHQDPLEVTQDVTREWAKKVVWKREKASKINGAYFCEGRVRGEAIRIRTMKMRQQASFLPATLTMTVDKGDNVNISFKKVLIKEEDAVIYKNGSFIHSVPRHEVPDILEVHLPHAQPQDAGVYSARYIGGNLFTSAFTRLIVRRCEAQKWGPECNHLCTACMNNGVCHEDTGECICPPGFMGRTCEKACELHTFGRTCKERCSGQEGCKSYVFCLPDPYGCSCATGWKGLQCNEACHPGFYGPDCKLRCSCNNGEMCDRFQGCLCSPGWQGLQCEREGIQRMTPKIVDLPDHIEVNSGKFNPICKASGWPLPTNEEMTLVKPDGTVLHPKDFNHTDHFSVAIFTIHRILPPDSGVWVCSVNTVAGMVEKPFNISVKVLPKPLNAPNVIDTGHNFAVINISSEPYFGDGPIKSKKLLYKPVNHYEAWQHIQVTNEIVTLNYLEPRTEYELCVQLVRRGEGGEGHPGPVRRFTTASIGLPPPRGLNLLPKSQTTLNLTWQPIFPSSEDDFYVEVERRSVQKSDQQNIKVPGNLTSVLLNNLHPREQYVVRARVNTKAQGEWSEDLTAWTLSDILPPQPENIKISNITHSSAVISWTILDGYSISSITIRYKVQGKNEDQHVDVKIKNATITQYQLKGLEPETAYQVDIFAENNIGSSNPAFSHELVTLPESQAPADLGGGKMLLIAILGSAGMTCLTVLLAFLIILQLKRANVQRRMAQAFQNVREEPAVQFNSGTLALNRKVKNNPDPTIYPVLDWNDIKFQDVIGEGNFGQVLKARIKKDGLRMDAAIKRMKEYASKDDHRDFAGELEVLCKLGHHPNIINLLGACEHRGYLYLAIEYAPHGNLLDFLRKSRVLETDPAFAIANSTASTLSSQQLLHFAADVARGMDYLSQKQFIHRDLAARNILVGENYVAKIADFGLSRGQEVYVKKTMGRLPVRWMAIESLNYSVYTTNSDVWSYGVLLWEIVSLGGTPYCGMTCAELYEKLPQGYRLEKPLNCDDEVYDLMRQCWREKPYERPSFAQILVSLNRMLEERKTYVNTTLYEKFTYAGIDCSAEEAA
Sequence of PRAK (Q8IW41 whole entry): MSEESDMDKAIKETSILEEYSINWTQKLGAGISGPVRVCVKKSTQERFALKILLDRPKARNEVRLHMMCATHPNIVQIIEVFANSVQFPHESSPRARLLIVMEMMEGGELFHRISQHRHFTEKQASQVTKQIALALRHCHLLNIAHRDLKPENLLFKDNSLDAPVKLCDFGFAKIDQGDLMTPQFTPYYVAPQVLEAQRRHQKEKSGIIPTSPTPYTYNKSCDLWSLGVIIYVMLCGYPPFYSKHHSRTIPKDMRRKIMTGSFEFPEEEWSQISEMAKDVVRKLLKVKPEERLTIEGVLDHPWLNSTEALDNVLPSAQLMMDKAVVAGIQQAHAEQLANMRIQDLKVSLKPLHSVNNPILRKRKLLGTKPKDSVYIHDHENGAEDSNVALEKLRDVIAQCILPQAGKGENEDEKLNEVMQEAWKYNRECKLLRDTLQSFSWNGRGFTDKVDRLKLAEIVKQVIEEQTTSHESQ
Sequence of PIM2 (Q9P1W9 whole entry): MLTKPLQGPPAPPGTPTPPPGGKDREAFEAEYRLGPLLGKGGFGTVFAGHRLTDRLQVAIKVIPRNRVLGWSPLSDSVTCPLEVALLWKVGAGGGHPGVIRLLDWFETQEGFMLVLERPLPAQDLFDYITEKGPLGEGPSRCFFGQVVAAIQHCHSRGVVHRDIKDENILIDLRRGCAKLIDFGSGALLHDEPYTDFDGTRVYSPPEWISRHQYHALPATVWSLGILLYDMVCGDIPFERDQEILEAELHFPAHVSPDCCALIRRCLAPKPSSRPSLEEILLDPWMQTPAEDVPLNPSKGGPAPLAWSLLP
Sequence of TSSK1 (Q9BXA7 whole entry): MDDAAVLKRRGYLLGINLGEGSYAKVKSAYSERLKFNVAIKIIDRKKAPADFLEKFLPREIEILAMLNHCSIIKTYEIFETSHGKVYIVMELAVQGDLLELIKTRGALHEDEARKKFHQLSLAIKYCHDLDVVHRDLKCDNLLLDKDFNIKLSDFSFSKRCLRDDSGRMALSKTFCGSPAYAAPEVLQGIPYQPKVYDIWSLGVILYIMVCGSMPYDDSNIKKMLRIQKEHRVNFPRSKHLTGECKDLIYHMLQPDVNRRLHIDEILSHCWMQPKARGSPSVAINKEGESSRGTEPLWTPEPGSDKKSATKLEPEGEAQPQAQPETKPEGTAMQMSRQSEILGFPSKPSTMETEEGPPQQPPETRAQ
Sequence of PAK5 (Q9P286 whole entry): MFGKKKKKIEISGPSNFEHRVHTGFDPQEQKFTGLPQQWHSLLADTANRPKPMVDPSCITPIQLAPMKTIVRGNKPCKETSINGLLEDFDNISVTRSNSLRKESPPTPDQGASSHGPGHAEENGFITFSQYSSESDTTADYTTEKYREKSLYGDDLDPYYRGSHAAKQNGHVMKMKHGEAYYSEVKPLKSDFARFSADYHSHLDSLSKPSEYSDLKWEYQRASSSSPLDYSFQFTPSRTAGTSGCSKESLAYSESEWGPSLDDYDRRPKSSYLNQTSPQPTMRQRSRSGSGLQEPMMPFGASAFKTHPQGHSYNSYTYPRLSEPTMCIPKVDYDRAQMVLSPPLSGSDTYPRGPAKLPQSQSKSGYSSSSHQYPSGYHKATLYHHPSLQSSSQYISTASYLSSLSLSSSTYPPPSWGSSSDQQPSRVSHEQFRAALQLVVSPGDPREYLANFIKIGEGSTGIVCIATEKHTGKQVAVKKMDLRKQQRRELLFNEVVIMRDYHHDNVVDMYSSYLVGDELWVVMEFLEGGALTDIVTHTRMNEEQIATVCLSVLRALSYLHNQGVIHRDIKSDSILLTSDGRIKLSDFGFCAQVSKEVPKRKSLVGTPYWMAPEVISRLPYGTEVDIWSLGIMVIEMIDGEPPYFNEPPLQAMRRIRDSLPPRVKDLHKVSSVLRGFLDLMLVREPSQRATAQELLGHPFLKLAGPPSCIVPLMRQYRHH
Sequence of PAK2 (Q13177 whole entry): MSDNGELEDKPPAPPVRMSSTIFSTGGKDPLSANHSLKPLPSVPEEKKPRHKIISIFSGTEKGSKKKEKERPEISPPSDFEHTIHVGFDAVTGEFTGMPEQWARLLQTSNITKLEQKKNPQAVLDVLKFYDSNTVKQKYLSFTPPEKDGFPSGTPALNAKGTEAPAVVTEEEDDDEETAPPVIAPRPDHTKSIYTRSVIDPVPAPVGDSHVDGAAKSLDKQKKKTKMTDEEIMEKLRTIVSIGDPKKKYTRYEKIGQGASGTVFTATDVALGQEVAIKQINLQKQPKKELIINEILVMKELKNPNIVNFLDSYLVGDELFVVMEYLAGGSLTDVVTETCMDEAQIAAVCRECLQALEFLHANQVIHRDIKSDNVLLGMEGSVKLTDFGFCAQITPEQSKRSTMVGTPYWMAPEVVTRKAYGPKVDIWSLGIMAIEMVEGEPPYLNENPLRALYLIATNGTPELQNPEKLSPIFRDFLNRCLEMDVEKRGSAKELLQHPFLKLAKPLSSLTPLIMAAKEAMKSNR
Sequence of IRAK4 (Q9NWZ3 whole entry): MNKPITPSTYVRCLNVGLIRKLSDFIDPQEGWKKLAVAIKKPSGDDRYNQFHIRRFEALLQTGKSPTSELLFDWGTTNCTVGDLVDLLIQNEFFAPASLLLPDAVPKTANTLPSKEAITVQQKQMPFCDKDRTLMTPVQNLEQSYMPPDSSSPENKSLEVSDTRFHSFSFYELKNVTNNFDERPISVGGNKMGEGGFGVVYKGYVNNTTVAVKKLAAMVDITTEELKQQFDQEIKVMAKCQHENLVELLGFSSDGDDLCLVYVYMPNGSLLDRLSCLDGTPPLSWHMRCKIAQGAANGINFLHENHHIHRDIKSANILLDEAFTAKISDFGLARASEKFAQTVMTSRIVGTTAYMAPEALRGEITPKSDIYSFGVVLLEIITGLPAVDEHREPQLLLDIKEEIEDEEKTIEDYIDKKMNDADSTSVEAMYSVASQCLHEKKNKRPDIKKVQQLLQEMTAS
Sequence of GCK (Q12851 whole entry): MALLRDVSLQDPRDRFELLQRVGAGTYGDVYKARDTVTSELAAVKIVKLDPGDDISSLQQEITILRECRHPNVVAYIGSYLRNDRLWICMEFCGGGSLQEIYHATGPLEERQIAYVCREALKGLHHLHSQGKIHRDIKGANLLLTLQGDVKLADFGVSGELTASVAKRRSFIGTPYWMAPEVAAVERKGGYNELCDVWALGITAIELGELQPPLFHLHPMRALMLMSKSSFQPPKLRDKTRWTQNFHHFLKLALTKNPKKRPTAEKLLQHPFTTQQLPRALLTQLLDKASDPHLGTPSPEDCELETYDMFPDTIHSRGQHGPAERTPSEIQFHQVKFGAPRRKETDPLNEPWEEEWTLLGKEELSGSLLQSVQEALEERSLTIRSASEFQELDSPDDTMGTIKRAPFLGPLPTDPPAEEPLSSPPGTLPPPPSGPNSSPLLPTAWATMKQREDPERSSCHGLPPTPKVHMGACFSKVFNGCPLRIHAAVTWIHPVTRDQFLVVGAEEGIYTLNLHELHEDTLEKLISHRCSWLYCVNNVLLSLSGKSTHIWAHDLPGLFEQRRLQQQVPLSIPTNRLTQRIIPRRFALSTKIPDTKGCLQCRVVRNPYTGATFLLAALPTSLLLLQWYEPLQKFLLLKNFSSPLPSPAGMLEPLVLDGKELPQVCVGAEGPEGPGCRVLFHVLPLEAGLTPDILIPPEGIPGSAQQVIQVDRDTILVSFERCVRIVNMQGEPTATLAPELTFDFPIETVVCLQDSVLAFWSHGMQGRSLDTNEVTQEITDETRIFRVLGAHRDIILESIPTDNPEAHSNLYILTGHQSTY

Cc1cc(=O)n(C2CCCC2)c2nc(Nc3ccc(N4CC5CC(C4)N5C)cc3)ncc12 [Compound 9]
% activity remaining [1]: 104% | % activity remaining [2]: 103% | % activity remaining [3]: 91% | % activity remaining [4]: 88% | % activity remaining [5]: 72% | % activity remaining [6]: 86% | % activity remaining [7]: 97% | % activity remaining [8]: 64% | % activity remaining [9]: 35% | % activity remaining [10]: 96% | % activity remaining [11]: 92% | % activity remaining [12]: 91% | % activity remaining [13]: 47% | % activity remaining [14]: 80% | % activity remaining [15]: 115% | % activity remaining [16]: 100% | % activity remaining [17]: 23% | % activity remaining [18]: 67% | % activity remaining [19]: 91% | % activity remaining [20]: 76% | % activity remaining [21]: 95% | % activity remaining [22]: 99% | % activity remaining [23]: 61% | % activity remaining [24]: 56% | % activity remaining [25]: 111% | % activity remaining [26]: 19% | % activity remaining [27]: 103% | % activity remaining [28]: 50% | % activity remaining [29]: 41% | % activity remaining [30]: 85% | % activity remaining [31]: 103% | % activity remaining [32]: 75% | % activity remaining [33]: 99% | % activity remaining [34]: 101% | % activity remaining [35]: 90%

CN1C2CC1CN(c1ccc(Nc3ncc4ccn(CC5CCOCC5)c4n3)cc1)C2 [Compound 24]
% activity remaining [1]: 97% | % activity remaining [2]: 110% | % activity remaining [3]: 108% | % activity remaining [4]: 82% | % activity remaining [5]: 81% | % activity remaining [6]: 43% | % activity remaining [7]: 107% | % activity remaining [8]: 99% | % activity remaining [9]: 88% | % activity remaining [10]: 72% | % activity remaining [11]: 103% | % activity remaining [12]: 82% | % activity remaining [13]: 97% | % activity remaining [14]: 102% | % activity remaining [15]: 62% | % activity remaining [16]: 71% | % activity remaining [17]: 77% | % activity remaining [18]: 70% | % activity remaining [19]: 97% | % activity remaining [20]: 89% | % activity remaining [21]: 77% | % activity remaining [22]: 111% | % activity remaining [23]: 102% | % activity remaining [24]: 77% | % activity remaining [25]: 79% | % activity remaining [26]: 81% | % activity remaining [27]: 84% | % activity remaining [28]: 89% | % activity remaining [29]: 74% | % activity remaining [30]: 78% | % activity remaining [31]: 103% | % activity remaining [32]: 71% | % activity remaining [33]: 83% | % activity remaining [34]: 69% | % activity remaining [35]: 91%
